Laboratory results published in patent publication US12258328B2, “6-membered heteroaryl-containing aminopyridine compounds as EGFR inhibitors” (YUHAN CORPORATION, priority 2021, dated 2025).
pIC50: −log10 of the molar value. Read-outs that look alike come from different tables or passages of the source.

Assays:
EGFR L858R/T790M/C797S = EGFR L858R/T790M/C797S (Homo sapiens, UniProt P00533, C797S/L858R/T790M); assay: Biochemical EGFR kinase assay (Lance Ultra TR-FRET), triple mutant L858R/T790M/C797S
Sequence of EGFR L858R/T790M/C797S (P00533 25-1210 T790M/C797S/L858R): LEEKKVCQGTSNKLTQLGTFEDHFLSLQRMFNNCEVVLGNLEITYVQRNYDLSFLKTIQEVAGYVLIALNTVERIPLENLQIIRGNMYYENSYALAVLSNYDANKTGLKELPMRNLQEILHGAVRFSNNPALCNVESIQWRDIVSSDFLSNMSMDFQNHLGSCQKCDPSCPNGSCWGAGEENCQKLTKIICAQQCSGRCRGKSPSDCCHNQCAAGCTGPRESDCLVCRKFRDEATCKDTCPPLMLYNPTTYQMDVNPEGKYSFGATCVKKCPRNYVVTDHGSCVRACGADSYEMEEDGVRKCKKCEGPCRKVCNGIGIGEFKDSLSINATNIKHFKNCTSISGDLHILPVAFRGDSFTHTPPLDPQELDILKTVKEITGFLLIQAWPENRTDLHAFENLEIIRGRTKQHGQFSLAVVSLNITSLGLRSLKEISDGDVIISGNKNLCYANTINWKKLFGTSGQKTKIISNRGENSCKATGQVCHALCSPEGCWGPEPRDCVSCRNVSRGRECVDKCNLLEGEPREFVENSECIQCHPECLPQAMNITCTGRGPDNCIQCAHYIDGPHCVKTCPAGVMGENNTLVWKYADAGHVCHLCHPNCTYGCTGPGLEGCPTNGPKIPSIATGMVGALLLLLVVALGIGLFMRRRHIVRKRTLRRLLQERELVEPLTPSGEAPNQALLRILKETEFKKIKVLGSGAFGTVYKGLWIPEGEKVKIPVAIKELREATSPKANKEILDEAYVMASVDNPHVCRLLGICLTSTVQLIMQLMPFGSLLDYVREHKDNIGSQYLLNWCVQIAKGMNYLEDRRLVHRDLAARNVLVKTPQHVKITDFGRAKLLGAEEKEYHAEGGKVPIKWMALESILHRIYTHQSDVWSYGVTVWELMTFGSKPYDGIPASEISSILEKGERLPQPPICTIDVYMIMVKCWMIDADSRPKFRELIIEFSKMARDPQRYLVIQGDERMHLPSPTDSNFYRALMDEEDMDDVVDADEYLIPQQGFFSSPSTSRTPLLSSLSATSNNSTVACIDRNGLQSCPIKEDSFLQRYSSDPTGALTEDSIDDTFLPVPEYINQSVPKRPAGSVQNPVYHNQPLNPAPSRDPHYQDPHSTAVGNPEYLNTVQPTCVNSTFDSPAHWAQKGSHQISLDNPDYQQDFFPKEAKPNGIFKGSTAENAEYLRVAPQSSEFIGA
How it was run: (§1)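 Kinase activity is measured by TR-FRET phosphopeptide detection. Compounds span 0.003 μM to 10 μM; the 1 h reaction at room temperature is quenched with EDTA, then labelled antibody (2 nM) is incubated 60 min before reading.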

EGFR wildtype = EGFR wildtype (Homo sapiens, UniProt P00533); assay: Biochemical EGFR kinase assay (Lance Ultra TR-FRET), wildtype
How it was run: as §1

EGFR del19/C797S = EGFR del19/C797S (Homo sapiens, UniProt P00533, C797S/DEL746-750); assay: Biochemical EGFR kinase assay (Lance Ultra TR-FRET), double mutant del19/C797S
Sequence of EGFR del19/C797S (P00533 with tags, fused parts or gaps DEL746-750/C797S): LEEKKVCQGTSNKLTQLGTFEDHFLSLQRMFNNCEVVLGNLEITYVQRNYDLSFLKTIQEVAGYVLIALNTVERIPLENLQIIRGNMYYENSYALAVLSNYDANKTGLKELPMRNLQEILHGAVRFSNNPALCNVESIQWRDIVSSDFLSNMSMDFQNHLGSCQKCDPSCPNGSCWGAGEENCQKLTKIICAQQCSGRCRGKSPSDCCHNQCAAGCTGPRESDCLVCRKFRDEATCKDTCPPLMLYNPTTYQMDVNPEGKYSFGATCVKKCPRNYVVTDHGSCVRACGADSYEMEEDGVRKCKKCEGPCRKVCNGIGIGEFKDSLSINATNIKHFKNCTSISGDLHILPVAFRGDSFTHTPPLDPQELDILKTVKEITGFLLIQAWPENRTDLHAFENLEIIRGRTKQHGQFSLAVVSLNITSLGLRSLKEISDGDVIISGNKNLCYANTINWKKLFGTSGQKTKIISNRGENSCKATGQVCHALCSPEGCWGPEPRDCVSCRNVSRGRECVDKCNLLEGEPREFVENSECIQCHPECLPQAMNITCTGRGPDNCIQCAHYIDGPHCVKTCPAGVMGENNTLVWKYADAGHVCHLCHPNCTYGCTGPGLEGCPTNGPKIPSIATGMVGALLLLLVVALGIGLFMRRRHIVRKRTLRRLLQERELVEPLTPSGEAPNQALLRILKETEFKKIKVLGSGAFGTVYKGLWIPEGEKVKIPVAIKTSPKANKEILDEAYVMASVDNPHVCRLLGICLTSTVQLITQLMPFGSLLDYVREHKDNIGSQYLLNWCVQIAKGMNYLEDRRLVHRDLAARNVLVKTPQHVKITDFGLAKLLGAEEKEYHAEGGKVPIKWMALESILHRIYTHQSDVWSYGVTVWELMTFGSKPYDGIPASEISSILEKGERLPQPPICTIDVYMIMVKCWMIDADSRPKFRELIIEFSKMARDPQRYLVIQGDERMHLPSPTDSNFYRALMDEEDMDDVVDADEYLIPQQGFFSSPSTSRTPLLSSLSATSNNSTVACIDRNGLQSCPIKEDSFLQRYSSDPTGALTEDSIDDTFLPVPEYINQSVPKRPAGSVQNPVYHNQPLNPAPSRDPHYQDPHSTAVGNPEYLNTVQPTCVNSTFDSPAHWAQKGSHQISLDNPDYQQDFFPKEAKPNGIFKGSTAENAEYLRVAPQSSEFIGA
How it was run: as §1

EGFR L858R/C797S = EGFR L858R/C797S (Homo sapiens, UniProt P00533, C797S/L858R); assay: Biochemical EGFR kinase assay (Lance Ultra TR-FRET), double mutant L858R/C797S
Sequence of EGFR L858R/C797S (P00533 25-1210 C797S/L858R): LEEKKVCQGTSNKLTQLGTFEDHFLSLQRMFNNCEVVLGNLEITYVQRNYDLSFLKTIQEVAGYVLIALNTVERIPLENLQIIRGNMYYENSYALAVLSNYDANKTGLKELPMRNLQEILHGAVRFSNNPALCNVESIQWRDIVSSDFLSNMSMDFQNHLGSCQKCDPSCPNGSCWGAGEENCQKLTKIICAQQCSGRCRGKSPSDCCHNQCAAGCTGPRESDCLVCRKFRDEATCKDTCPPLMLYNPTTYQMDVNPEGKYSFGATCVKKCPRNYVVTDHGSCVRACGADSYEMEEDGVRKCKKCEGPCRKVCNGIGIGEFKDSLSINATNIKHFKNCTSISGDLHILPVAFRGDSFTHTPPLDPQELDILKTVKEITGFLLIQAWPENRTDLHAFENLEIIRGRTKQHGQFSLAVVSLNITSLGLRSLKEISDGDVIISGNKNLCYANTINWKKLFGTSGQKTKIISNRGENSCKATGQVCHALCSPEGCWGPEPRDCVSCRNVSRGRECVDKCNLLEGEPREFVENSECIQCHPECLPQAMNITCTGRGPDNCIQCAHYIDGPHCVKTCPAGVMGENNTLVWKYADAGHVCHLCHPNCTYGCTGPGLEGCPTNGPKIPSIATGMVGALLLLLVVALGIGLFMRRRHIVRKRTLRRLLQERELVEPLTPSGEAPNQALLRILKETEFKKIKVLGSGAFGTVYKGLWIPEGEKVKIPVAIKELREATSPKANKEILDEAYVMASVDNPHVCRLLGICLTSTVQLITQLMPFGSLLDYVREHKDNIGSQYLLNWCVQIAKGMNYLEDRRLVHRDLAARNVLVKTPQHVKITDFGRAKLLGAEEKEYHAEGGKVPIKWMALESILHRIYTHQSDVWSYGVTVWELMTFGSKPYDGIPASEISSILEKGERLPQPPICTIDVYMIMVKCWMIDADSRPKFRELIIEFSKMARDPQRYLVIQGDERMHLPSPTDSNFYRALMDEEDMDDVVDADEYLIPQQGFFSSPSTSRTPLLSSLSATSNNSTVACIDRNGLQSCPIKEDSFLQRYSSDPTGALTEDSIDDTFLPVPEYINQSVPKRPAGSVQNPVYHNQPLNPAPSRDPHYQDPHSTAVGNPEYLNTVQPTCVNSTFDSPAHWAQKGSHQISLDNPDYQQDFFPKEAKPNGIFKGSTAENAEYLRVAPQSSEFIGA
How it was run: as §1

EGFR del19/T790M/C797S = EGFR del19/T790M/C797S (Homo sapiens, UniProt P00533, C797S/DEL746-750/T790M); assay: Biochemical EGFR kinase assay (Lance Ultra TR-FRET), triple mutant del19/T790M/C797S
Sequence of EGFR del19/T790M/C797S (P00533 with tags, fused parts or gaps DEL746-750/T790M/C797S): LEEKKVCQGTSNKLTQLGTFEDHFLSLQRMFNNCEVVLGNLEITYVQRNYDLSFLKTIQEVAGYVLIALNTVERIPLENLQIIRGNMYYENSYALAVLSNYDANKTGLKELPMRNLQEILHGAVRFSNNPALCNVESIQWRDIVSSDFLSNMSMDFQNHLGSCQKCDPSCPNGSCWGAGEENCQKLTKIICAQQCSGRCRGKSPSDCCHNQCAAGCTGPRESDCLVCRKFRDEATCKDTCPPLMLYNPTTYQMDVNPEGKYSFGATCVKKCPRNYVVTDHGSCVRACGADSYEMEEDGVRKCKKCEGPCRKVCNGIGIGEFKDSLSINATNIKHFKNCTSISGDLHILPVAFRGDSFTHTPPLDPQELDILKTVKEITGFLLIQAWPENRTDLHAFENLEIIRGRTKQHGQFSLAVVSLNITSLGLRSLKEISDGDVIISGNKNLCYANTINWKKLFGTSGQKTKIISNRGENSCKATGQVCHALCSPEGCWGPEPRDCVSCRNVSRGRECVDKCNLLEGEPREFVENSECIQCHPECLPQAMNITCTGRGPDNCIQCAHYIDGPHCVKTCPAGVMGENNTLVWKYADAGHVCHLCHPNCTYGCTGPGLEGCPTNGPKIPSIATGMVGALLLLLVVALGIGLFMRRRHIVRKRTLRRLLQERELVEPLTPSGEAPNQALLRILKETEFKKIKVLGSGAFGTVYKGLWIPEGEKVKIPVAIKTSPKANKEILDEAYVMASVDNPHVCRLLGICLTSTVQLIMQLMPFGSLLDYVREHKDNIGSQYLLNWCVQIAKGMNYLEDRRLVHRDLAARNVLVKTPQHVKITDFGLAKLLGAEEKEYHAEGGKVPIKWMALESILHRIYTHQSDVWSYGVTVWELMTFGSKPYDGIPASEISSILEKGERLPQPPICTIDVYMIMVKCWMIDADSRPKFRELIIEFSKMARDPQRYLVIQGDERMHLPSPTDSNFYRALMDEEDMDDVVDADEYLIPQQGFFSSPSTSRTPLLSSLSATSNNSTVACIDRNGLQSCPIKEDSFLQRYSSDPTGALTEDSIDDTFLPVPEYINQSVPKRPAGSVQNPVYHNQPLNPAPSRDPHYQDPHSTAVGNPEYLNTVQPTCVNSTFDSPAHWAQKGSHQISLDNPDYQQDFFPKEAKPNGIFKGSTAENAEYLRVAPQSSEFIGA
How it was run: as §1

[1] = IC50 L858R/T790M/C797S, 100 μM ATP
[2] = IC50 del19/T790M/C797S, 100 μM ATP
[3] = ATP at Km, read-out: IC50 WT, Km ATP
[4] = ATP at Km, read-out: IC50 del19/C797S, Km ATP
[5] = ATP at Km, read-out: IC50 L858R/C797S, Km ATP
[6] = ATP at Km, read-out: IC50 del19/T790M/C797S, Km ATP
[7] = ATP at Km, read-out: IC50 L858R/T790M/C797S, Km ATP

SMILES	pIC50 (EGFR L858R/T790M/C797S; [1])	pIC50 (EGFR wildtype; IC50 WT, 100 μM ATP)	pIC50 (EGFR del19/C797S; IC50 del19/C797S, 100 μM ATP)	pIC50 (EGFR L858R/C797S; IC50 L858R/C797S, 100 μM ATP)	pIC50 (EGFR del19/T790M/C797S; [2])	pIC50 (EGFR wildtype; [3])	pIC50 (EGFR del19/C797S; [4])	pIC50 (EGFR L858R/C797S; [5])	pIC50 (EGFR del19/T790M/C797S; [6])	pIC50 (EGFR L858R/T790M/C797S; [7])
C[C@]1(O)CC[C@@H](Nc2cc(Nc3ccnc(-c4cnn(S(=O)(=O)C5CC5)c4)n3)ncc2-c2ccc(C(=O)N3CCOCC3)cn2)CC1 [Example 284, (6′-((2-(1-(Cyclopropylsulfonyl)-1H-pyrazol-4-yl)pyrimidin-4-yl)amino)-4′-(((1s,4s)-4-hydroxy-4-methylcyclohexyl)amino)-[2,3′-bipyridin]-5-yl)(morpholino)methanone]	9.70	6.75	9.70	9.40	10.00	–	–	–	–	–
C[C@]1(O)CC[C@@H](Nc2cc(Nc3ccnc(-c4cnn(S(=O)(=O)C5CC5)c4)n3)ncc2-c2cccc(NCCO)n2)CC1 [Example 285, (1s,4s)-4-((6′-((2-(1-(Cyclopropylsulfonyl)-1H-pyrazol-4-yl)pyrimidin-4-yl)amino)-6-((2-hydroxyethyl)amino)-[2,3′-bipyridin]-4′-yl)amino)-1-methylcyclohexan-1-ol]	9.70	5.20	9.05	7.85	9.70	8.11	9.40	9.30	10.00	–
CN1CCC(Oc2cccc(-c3cnc(Nc4ccnc(-c5cnn(S(=O)(=O)C6CC6)c5)n4)cc3N[C@H]3CC[C@@](C)(O)CC3)n2)CC1 [Example 286, (1s,4s)-4-((6′-((2-(1-(Cyclopropylsulfonyl)-1H-pyrazol-4-yl)pyrimidin-4-yl)amino)-6-((1-methylpiperidin-4-yl)oxy)-[2,3′-bipyridin]-4′-yl)amino)-1-methylcyclohexan-1-ol]	9.52	6.13	9.52	8.60	9.52	–	9.52	10.00	9.70	10.00
CN(C)CCOc1ccnc(-c2cnc(Nc3ccnc(-c4cnn(S(=O)(=O)C5CC5)c4)n3)cc2N[C@H]2CC[C@@](C)(O)CC2)c1 [Example 287, (1s,4s)-4-((6′-((2-(1-(Cyclopropylsulfonyl)-1H-pyrazol-4-yl)pyrimidin-4-yl)amino)-4-(2-(dimethylamino)ethoxy)-[2,3′-bipyridin]-4′-yl)amino)-1-methylcyclohexan-1-ol]	10.00	5.29	9.00	7.36	9.52	8.52	9.40	9.10	9.70	10.00

Results, then the compound that gave them:

pIC50 (EGFR L858R/T790M/C797S; [1])	pIC50 (EGFR wildtype; IC50 WT, 100 μM ATP)	pIC50 (EGFR del19/C797S; IC50 del19/C797S, 100 μM ATP)	pIC50 (EGFR L858R/C797S; IC50 L858R/C797S, 100 μM ATP)	pIC50 (EGFR del19/T790M/C797S; [2])	pIC50 (EGFR wildtype; [3])	pIC50 (EGFR del19/C797S; [4])	pIC50 (EGFR L858R/C797S; [5])	pIC50 (EGFR del19/T790M/C797S; [6])	pIC50 (EGFR L858R/T790M/C797S; [7])	SMILES
9.70	5.70	9.30	8.17	9.52	9.15	9.70	9.52	9.70	10.00	CC1(O)CCC(Nc2cc(Nc3ccnc(-c4cnn(S(=O)(=O)C5CC5)c4)n3)ncc2-c2cc(CN3CC(O)C3)ccn2)CC1 (centres unmarked) [Example 288, 1-((6′-((2-(1-(Cyclopropylsulfonyl)-1H-pyrazol-4-yl)pyrimidin-4-yl)amino)-4′-(((1s,4s)-4-hydroxy-4-methylcyclohexyl)amino)-[2,3′-bipyridin]-4-yl)methyl) azetidin-3-ol]
10.00	6.69	9.70	9.10	9.70	9.52	10.00	10.00	9.70	10.00	CN1CC(Oc2ccc(-c3cnc(Nc4ccnc(-c5cnn(S(=O)(=O)C6CC6)c5)n4)cc3N[C@H]3CC[C@@](C)(O)CC3)nc2)C1 [Example 289, (1s,4s)-4-((6′-((2-(1-(Cyclopropylsulfonyl)-1H-pyrazol-4-yl)pyrimidin-4-yl)amino)-5-((1-methylazetidin-3-yl)oxy)-[2,3′-bipyridin]-4′-yl)amino)-1-methylcyclohexan-1-ol]
